Data on nine compounds can be found in US5053070A, “Pyrimidine derivatives, preparation processes thereof, herbicide containing the same, and herbicidal compositions containing the same along with other active ingredient” (Mitsui Toatsu Chemicals, Incorporated, priority 1988, dated 1991).

What all share (type): in vivo
For test [1], the system named is johnsongrass. The experiment in a line: Upland foliar application test by mixed formulations, concentration gradient (Test 8). On the procedure: (§1) Resin-made 1/10,000-are pots were filled with the soil of an upland field. Redroot pigweed and johnsongrass were separately seeded and were allowed to germinate in a green house. When each plant grew to the stage of 2-3 leaves, emulsions formulated with concentration gradient from predetermined amounts of two test compounds of different kinds in a similar manner to the method described in Formulation Example 16 was diluted with water to a predetermined dilution rate and then sprayed at an application rate equal to 5 l per are onto the foliage of each plant by means of a pressure-operated ULV (ultra low volume) sprayer. Influence to the weeds were observed on the 40th day after the spray of the herbicides. The results are shown in Table 9, In the table, Ea have the same meanings as in Test 7, and Ea>Ec indicates the existence of synergistic action while Ea<Ec indicates the existence of antagonistic action.

In test [2] the test system is redroot pigweed. The test is described as above. On the procedure: as §1
Test [3] has as its system johnsongrass. Description: Upland foliar application test by mixed formulations (Test 7). To be noted: Sorghum halepense, 720 h; for pest or weed control at 1000 g/ha: read-out: Herbicidal effects (%) Johnsongrass Ea, applied alone, 1 kg/ha, foliar, 30th day. On the procedure: (§2) Resin-made 1/10,000-are pots were filled with the soil of an upland field. Redroot pigweed, morningglories, johnsongrass, barnyardgrass and green foxtail were separately seeded and were allowed to germinate in a green house. When each plant grew to the stage of 2-3 leaves, an emulsion formulated from predetermined amounts of two test compounds of different kinds in a similar manner to the method described in Formulation Example 16 was diluted with water to a predetermined dilution rate and then sprayed at an application rate equal to 5 l per are onto the foliage of each plant by means of a pressure-operated ULV (ultra low volume) sprayer. Influence to the weeds were observed on the 30th day after the spray of the herbicides. In the table, each Ea means an acutally measured value of herbicidal activities when two kinds of herbicides were mixed. Each Ec is an expected value for herbicidal activities, calculated in accordance with the below-described calculation formula proposed by Colby et al. [Colby, S. R., Weed 15, 20-22 (1967)]. Ea>Ec indicates the existence of synergistic action while […] action. [formula] Ec: Growth inhibition rate (%) expected when Ingredient I and Ingredient II are mixed.
(§3) Ex: Growth inhibition rate (%) when treated with Ingredient I alone.
(§4) Ey: Growth inhibition rate (%) when treated with Ingredient II alone.

Test [4] has as its system redroot pigweed. Described as above. Particulars: Amaranthus retroflexus, 720 h, read-out: Herbicidal effects (%) Redrood pigweed Ea. On the procedure:
as §2, §3, §4

Another test concerns green foxtail. The description is as above. To be noted: Setaria viridis, 720 h, read-out: Herbicidal effects (%) Green foxtail Ea. On the procedure:
as §2, §3, §4

Where [5] appears, read: Sorghum halepense, 960 h, applied alone, 2 g/a, 40th day, read-out: Herbicidal effects Johnsongrass Ea.
Where [6] appears, read: Sorghum halepense, 960 h, applied alone, 4 g/a, 40th day, read-out: Herbicidal effects Johnsongrass Ea.
Setting [7] is: Sorghum halepense, 960 h, applied alone, 8 g/a, 40th day, read-out: Herbicidal effects Johnsongrass Ea.
The mark [8] stands for this setting: Amaranthus retroflexus, 960 h, applied alone, 2 g/a, 40th day, read-out: Herbicidal effects Redrood pigweed Ea.
Where [9] appears, read: Amaranthus retroflexus, 960 h, applied alone, 4 g/a, 40th day, read-out: Herbicidal effects Redrood pigweed Ea.
Setting [10] is: Amaranthus retroflexus, 960 h, applied alone, 8 g/a, 40th day, read-out: Herbicidal effects Redrood pigweed Ea.
Setting [11] is: Sorghum halepense, 960 h, read-out: Herbicidal effects Johnsongrass Ea.
[12] abbreviates: Amaranthus retroflexus, 960 h, read-out: Herbicidal effects Redrood pigweed Ea.
The mark [13] stands for this setting: applied alone, 0.2 kg/ha, 30th day.

Like-named read-outs stand apart in the source and are kept apart here.

Take “2-methylthio-4-methylamino-6-isopropylamino-1,3,5-triazine [Ametryn]”: the “Herbicidal effects Johnsongrass Ea” value with johnsongrass [1] (applied alone, 2 g/a, 40th day) is 0%; in the test on johnsongrass [1] (applied alone, 4 g/a, 40th day) it was 10%; with johnsongrass [1] (applied alone, 8 g/a, 40th day), 20%. Further, the “Herbicidal effects Redrood pigweed Ea” value was 10% in the test with redroot pigweed [2] (applied alone, 2 g/a, 40th day); 20% in the test with redroot pigweed [2] (applied alone, 4 g/a, 40th day); 30% with redroot pigweed [2] (applied alone, 8 g/a, 40th day).
For `CCc1cccc(CC)c1N(COC)C(=O)CCl` [alachlor, N-methoxymethyl-2',6'-diethyl-2-chloroacetanilide, reference compound], the pest or weed control at 1000 g/ha with johnsongrass [3] came out at 30%; in the test on redroot pigweed [4], 40%.
Turning to `CC(C)N1C(=O)c2ccccc2NS1(=O)=O` [bentazon, 3-isopropyl-(1H)-2,1,3-benzothiadiazin-4-(3H)-one-2,2-dioxide], the values for the pest or weed control at 200 g/ha with johnsongrass [1] (setting [5]) and in the test with redroot pigweed [2] (setting [8]) were 0% and 30%, respectively. Also, the pest or weed control at 400 g/ha in the test on johnsongrass [1] (setting [6]) came out at 0%; in the test with redroot pigweed [2] (setting [9]) it was 40%. The pest or weed control at 800 g/ha in the test with johnsongrass [1] (setting [7]) amounted to 20%; in the test with redroot pigweed [2] (setting [10]), 70%. Besides, the pest or weed control at 500 g/ha was determined as 0% in the test on johnsongrass [3] (applied alone, 0.5 kg/ha, 30th day, read-out: Herbicidal effects (%) Johnsongrass Ea) and 40% in the test on redroot pigweed [4] (applied alone, 0.5 kg/ha, 30th day).
With `O=C(O)c1ccccc1C(=O)Nc1cccc2ccccc12` [naptalam, 2-(1-naphthalenylaminocarbonyl)benzoic acid], in the test on johnsongrass [1] (setting [11]), the pest or weed control at 400 g/ha was determined as 0%, the pest or weed control at 800 g/ha is 10% and the pest or weed control at 1600 g/ha was 20%. In the test with redroot pigweed [2] (setting [12]), the pest or weed control at 400 g/ha was found to be 0%, the pest or weed control at 800 g/ha came to 10% and the pest or weed control at 1600 g/ha turned out to be 20%. In addition, the pest or weed control at 1000 g/ha in the test on johnsongrass [3] came to 10%. For the same compound, the pest or weed control at 1000 g/ha in the test on redroot pigweed [4] was found to be 10%.
Turning to `CCNc1nc(Cl)nc(NC(C)C)n1` [atrazine, 2-chloro-4-ethylamino-6-isopropylamino-1,3,5-triazine], the pest or weed control at 200 g/ha was 0% in the test on johnsongrass [1] (setting [11]) and 10% in the test on redroot pigweed [2] (setting [12]). In addition, the values for the pest or weed control at 400 g/ha in the test with johnsongrass [1] (setting [11]) and with redroot pigweed [2] (setting [12]) were 10% and 30%, respectively. The pest or weed control at 800 g/ha in the test with johnsongrass [1] (setting [11]) worked out at 10%; in the test with redroot pigweed [2] (setting [12]) it was 40%; with johnsongrass [3] (read-out: Herbicidal effects (%) Johnsongrass Ea, applied alone, 0.8 kg/ha, foliar, 30th day), 10%; in the test with redroot pigweed [4] it was 40%.
Regarding `CCc1cccc(C)c1N(C(=O)CCl)C(C)COC` (stereo not drawn) [metolachlor, 2-chloro-2'-ethyl-6'-methyl-N-(2-methoxy-1-methylethyl)acetanilide, reference compound], the pest or weed control at 1000 g/ha was 10% with green foxtail and 40% with redroot pigweed [4].
For `CSc1nnc(C(C)(C)C)c(=O)n1N` [metribuzin, 4-amino-6-tert-butyl-3-methylthio-1,2,4-triazin-5(4H)-one, reference compound], the values for the pest or weed control at 200 g/ha with green foxtail (setting [13]) and in the test on redroot pigweed [4] (setting [13]) were 10% and 30%, respectively.
On to `CC(C)c1ccc(NC(=O)N(C)C)cc1` [Isoproturon, 3-(4-isopropylphenyl)-1,1-dimethylurea], for which the values for the pest or weed control at 200 g/ha with johnsongrass [1] (setting [5]) and in the test with redroot pigweed [2] (setting [8]) were 0% and 10%, respectively. Besides, the pest or weed control at 400 g/ha is 10% in the test on johnsongrass [1] (setting [6]) and 20% with redroot pigweed [2] (setting [9]). The pest or weed control at 800 g/ha turned out to be 20% in the test on johnsongrass [1] (setting [7]) and 40% in the test with redroot pigweed [2] (setting [10]).
Take `CCCC(C)C(=O)Nc1ccc(C(C)C)c(Cl)c1` (stereo not drawn) [MT-5950, N-(3-chloro-4-isopropylphenyl)-2-methylpentamide]: the results for the pest or weed control at 200 g/ha in the test on johnsongrass [1] (setting [5]) and in the test with redroot pigweed [2] (setting [8]) were 10% and 30%, respectively. Further, the pest or weed control at 400 g/ha stood at 10% with johnsongrass [1] (setting [6]) and 70% with redroot pigweed [2] (setting [9]). Moreover, the pest or weed control at 800 g/ha in the test with johnsongrass [1] (setting [7]) amounted to 20%; in the test on redroot pigweed [2] (setting [10]), 85%.
